Assays:
[1] = biological target: T1, PTP1B (human recombinant) (Homo sapiens, UniProt P18031); experiment: PTP1B inhibitory assay using pNPP; format: biochemical; conditions: for IC50: mean ± S.E.M of triplicate experiments, substrate pNPP
T1 construct: purchased Biomol International LP (Plymouth Meeting, PA, USA)
T1 sequence (P18031 1-435): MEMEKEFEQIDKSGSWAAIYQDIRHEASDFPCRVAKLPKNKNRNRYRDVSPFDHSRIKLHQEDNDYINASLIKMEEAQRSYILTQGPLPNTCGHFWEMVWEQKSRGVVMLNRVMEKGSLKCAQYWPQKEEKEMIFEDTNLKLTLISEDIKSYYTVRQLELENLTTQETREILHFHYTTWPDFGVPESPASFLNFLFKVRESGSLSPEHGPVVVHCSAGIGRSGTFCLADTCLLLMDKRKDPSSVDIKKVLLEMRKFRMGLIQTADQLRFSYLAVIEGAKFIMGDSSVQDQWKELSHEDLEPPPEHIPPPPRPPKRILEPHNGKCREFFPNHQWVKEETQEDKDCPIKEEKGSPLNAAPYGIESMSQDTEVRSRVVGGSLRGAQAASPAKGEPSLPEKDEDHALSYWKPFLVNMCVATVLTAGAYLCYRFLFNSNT
Protocol: (§1) The PTP1B inhibitory activity was evaluated using pNPP according to the work of Jung et al.. In each well of a 96-well plate (each with a final volume of 100 µL), 40 µL of PTP1B enzyme [0.5 units diluted with a PTP1B reaction buffer containing 50 mM citrate (pH 6.0), 0.1 M NaCl, 1 mM EDTA, and 1 mM DTT] was added with or without the sample dissolved in 10% DMSO. The plate was preincubated at 37 °C for 10 min and then 50 µL of 2 mM pNPP in the PTP1B reaction buffer was added. Following incubation at 37 °C for 20 min, the reaction was terminated by the addition of 10 M NaOH. […] The inhibition percentage was obtained using the following equation: % inhibition = (Ac − As)/Ac × 100, where Ac is the absorbance of the control and As is the absorbance of the sample.

[2] = biological target: T1, PTP1B (human recombinant); experiment: Kinetic analysis of PTP1B inhibition (Lineweaver–Burk and Dixon plots); format: biochemical; conditions: for Ki: determined by Dixon plots; for PTP1B type of inhibition: determined by Lineweaver–Burk plots, pNPP 0.5, 1.0 and 2.0 mM
Protocol: as §1
To determine the kinetic mechanism, two kinetic methods using Lineweaver–Burk and Dixon plots were complementarily used. […] The enzymatic inhibitions of the test flavonoids were evaluated by monitoring the effects of different concentrations of the […] in the Dixon plots (single reciprocal plot). The enzymatic procedure consisted of the same, aforementioned, PTP1B assay method. The inhibition constants (Ki) were determined by interpretation of the Dixon plots, where the value of the x-axis implies -Ki.

SMILES: COc1ccc(C2CC(=O)c3c(cc(O)cc3OC3OC(CO)C(O)C(O)C3O)O2)cc1O (stereo not drawn) [Hesperetin 5-O-glucoside]
- IC50 [1]: 37.14 ± 0.07 µM
- Ki [2]: 81.6 µM
- PTP1B type of inhibition [2]: Mixed
- PTP1B type of inhibition ([2]; listed as hesperetin 5-O-glucoside): mixed-type inhibition

SMILES: COc1ccc(C2CC(=O)c3c(O)cc(OC4OC(CO)C(O)C(O)C4O)cc3O2)cc1O (stereo not drawn) [Hesperetin 7-O-glucoside]
- PTP1B inhibitory activity (in words) [1]: inactive
- IC50 [1]: > 300 µM

SMILES: COc1ccc([C@@H]2CC(=O)c3c(O)cc(O)cc3O2)cc1O [Hesperetin]
- IC50 [1]: 288 ± 7.98 µM
- Ki [2]: 295 µM
- PTP1B type of inhibition [2]: Uncompetitive
- PTP1B type of inhibition ([2]; listed as hesperetin): uncompetitive-type inhibition

SMILES: COc1ccc(C2CC(=O)c3c(O)cc(OC4OC(COC5OC(C)C(O)C(O)C5O)C(O)C(O)C4O)cc3O2)cc1O (stereo not drawn) [Hesperidin, hesperetin 7-O-rutinoside]
- IC50 [1]: 58.1 ± 4.18 µM
- Ki [2]: 50 µM
- PTP1B type of inhibition [2]: Mixed
- PTP1B type of inhibition ([2]; listed as hesperidin): mixed-type inhibition

SMILES: COc1ccc(C2CC(=O)c3c(O)cc(OC4OC(CO)C(O)C(O)C4OC4OC(C)C(O)C(O)C4O)cc3O2)cc1O (stereo not drawn) [Neohesperidin, hesperetin 7-O-neohesperidoside]
- IC50 [1]: 144 ± 3.04 µM
- Ki [2]: 154 µM
- PTP1B type of inhibition [2]: Uncompetitive
- PTP1B type of inhibition ([2]; listed as neohesperidin): uncompetitive-type inhibition

Reference: paper PMC8705904, “Structural Bases for Hesperetin Derivatives: Inhibition of Protein Tyrosine Phosphatase 1B, Kinetics Mechanism and Molecular Docking Study” (Molecules, 2021)
